Structures can show the parent of a compound that is named as a salt.
Key:
[1] = test system: advanced, rapidly progressive, treatment-refractory solid tumor cancers; conditions: cited from earlier work
recombinant human MMP-13 = target: T1, recombinant human MMP-13 (Homo sapiens, UniProt P45452); test: In vitro metalloprotease inhibition, fluorogenic MCA peptide substrate; type: biochemical; conditions: room temperature, pH 7.5, 4 μM substrate, APMA-activated enzyme
T1 construct: made in house
Protocol: (§1) Briefly, 4-aminophenylmercuric acetate (APMA) or trypsin activated MMPs were incubated with various concentrations of the inhibitor compound at room temperature for 5 minutes.
(§2) More specifically, recombinant human MMP-13 and MMP-1 enzymes were prepared in laboratories of the assignee. MMP-13 was expressed in baculovirus as a proenzyme, and purified first over a heparin agarose column and then over a chelating zinc chloride column. The proenzyme was activated by APMA for use in the assay. MMP-1 expressed in transfected HT-1080 cells was provided by Dr. Howard Welgus of Washington University, St. Louis, Mo. The enzyme was also activated using APMA and was then purified over a hydroxamic acid column.
(§3) MCA-ProLeuGlyLeuDpaAlaArgNH^2, wherein MCA is methoxycoumarin and Dpa is 3-(2,4-dinitrophenyl)-L-2,3-diaminopropionyl alanine.
(§4) The buffer used for assays contained 100 mM Tris-HCl, 100 mM NaCl, 10 mM CaCl2 and 0.05 percent polyethyleneglycol (23) lauryl ether at a pH value of 7.5.

recombinant human MMP-1 = target: T2, recombinant human MMP-1 (Homo sapiens, UniProt P03956); test: as above; type: biochemical; conditions: room temperature, pH 7.5, 4 μM substrate, APMA-activated enzyme
T2 construct: made in house; host or cells: transfected HT-1080 cells (provided by Dr. Howard Welgus, Washington University)
T2 sequence (P03956 100-469): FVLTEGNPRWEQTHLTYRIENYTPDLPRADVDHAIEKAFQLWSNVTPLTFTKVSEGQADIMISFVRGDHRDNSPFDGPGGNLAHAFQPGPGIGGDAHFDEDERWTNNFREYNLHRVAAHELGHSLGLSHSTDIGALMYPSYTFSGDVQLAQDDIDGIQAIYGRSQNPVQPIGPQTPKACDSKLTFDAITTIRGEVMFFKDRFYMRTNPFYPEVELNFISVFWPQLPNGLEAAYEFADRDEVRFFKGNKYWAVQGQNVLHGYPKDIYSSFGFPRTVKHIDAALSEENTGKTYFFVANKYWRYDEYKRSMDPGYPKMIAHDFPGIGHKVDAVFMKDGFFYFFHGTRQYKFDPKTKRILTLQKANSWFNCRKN
Protocol: as §1, §2, §3, §4

MMP-2 = target: T3, MMP-2 (Homo sapiens, UniProt P08253); test: as above; type: biochemical; conditions: room temperature, pH 7.5, 4 μM substrate
T3 sequence (P08253 110-660): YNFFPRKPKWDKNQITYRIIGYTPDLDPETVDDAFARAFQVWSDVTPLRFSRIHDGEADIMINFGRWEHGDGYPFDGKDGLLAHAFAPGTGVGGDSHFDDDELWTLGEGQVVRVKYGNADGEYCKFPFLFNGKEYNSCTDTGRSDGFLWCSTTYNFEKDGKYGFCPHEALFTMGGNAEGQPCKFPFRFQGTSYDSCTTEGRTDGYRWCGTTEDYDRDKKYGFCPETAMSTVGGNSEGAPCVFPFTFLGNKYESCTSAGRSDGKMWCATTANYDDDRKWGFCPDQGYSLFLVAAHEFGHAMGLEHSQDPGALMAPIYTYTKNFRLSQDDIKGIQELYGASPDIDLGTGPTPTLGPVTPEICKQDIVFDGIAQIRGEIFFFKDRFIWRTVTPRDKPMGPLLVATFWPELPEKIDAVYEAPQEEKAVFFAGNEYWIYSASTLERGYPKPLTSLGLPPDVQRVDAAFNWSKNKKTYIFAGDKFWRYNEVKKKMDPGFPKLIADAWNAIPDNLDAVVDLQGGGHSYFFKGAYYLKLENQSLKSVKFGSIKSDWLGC
Protocol: as §1, §3, §4

SMILES | IC50 (recombinant human MMP-13) | IC50 (recombinant human MMP-1) | IC50 (MMP-2) | effect on cancer-specific antigens used as surrogate markers for biological activity ([1]; Phase I/II, colorectal, pancreatic, ovarian, prostate cancers) | most common drug-related toxicity ([1]; clinical trials, patients with advanced solid tumor cancers)
CNC(=O)[C@@H](NC(=O)[C@H](CC(C)C)[C@H](O)C(=O)NO)C(C)(C)C [marimastat, Marimastat] |  |  |  | dose-related reduction in the rise of cancer-specific antigens | musculoskeletal pain and stiffness
COc1ccc(S(=O)(=O)CCCC(=O)NO)cc1 [Example 6] | 2000 nM |  |  |  | 
O=C(NO)C1(CCS(=O)(=O)c2ccc(Oc3ccccc3)cc2)CCNCC1 [Example 17] | 169 nM | > 10000 nM | 70 nM |  | 
CC(C)(CCS(=O)(=O)c1ccc(Oc2ccccc2)cc1)C(=O)NO [Example 3] | 2600 nM | > 10000 nM | 1000 nM |  | 
Cc1ccc(Oc2ccc(S(=O)(=O)CCC(O)C(=O)NO)cc2)cc1C (racemic) [Example 7] | 400 nM | > 10000 nM | 120 nM |  | 
CC(C)(CS(=O)(=O)c1ccc(Oc2ccccc2)cc1)[C@@H](O)C(=O)NO [Example 2] | 8.8 nM | > 10000 nM | 2 nM |  | 
O=C(NO)C(CCS(=O)(=O)c1ccc(Oc2ccccc2)cc1)N1CCCCC1 (centres unmarked) [Example 15] | 13.9 nM | > 10000 nM | 7.7 nM |  | 
O=C(NO)C(O)CCS(=O)(=O)c1ccc(Oc2ccccc2)cc1 (centres unmarked) [Example 4] | 54.4 nM | > 10000 nM | 15.8 nM |  | 
CC(C)(C)OC(=O)N1CCC(CCS(=O)(=O)c2ccc(Oc3ccccc3)cc2)(C(=O)NO)CC1 [Example 16] | 400 nM | > 10000 nM | 169 nM |  | 

Further lines, with some results ahead:

IC50 (recombinant human MMP-13) | IC50 (recombinant human MMP-1) | IC50 (MMP-2) | SMILES | effect on cancer-specific antigens used as surrogate markers for biological activity ([1]; Phase I/II, colorectal, pancreatic, ovarian, prostate cancers) | most common drug-related toxicity ([1]; clinical trials, patients with advanced solid tumor cancers)
1.9 nM | 6300 nM | 0.3 nM | CC(C)(CS(=O)(=O)c1ccc(Oc2ccccc2)cc1)[C@H](O)C(=O)NO [Example 1] |  | 
1.4 nM | 770 nM | 0.3 nM | CC(C)(CS(=O)(=O)c1ccc(Oc2ccccc2)cc1)[C@H](NC(=O)CN1CCOCC1)C(=O)NO [Example 13] |  | 
2.4 nM | > 10000 nM | 1.8 nM | CC(C)(CS(=O)(=O)c1ccc(Oc2ccccc2)cc1)[C@H](NC(=O)CN1CCCC1)C(=O)NO [Example 14] |  | 
3 nM | 7000 nM | 1.3 nM | CC(C)(CS(=O)(=O)c1ccc(Oc2ccccc2)cc1)[C@H](OCc1ccncc1)C(=O)NO [Example 9a, (S)-N-Hydroxy-3,3-dimethyl-4-[(4-phenoxyphenyl)sulfonyl]-2-(4-pyridinylmethoxy)butanamide] |  | 
1.8 nM | > 10000 nM | 3.2 nM | CC(CCS(=O)(=O)c1ccc(Oc2ccccc2)cc1)C(=O)NO (centres unmarked) [Example 5] |  | 
1.8 nM | 1800 nM | 0.6 nM | CC(C)(CS(=O)(=O)c1ccc(Oc2ccccc2)cc1)[C@H](NC(=O)CN1CCOCC1)C(=O)NO [Example 13a, (S)-N-[1-[(Hydroxyamino)carbonyl]-2,2-dimethyl-3-[(4-phenoxyphenyl)sulfonyl]-propyl]-4-morpholineacetamide Monohydrochloride] |  | 
2.4 nM |  | 1.5 nM | CC(C)(CS(=O)(=O)c1ccc(Oc2ccccc2)cc1)[C@H](OCc1ccccn1)C(=O)NO [Example 10] |  | 
< 0.1 nM | 50 nM | < 0.1 nM | CC(C)(C)OC(=O)N[C@H](C(=O)NO)C(C)(C)CS(=O)(=O)c1ccc(Oc2ccccc2)cc1 [Example 11] |  | 
5 nM | > 10000 nM | 2.2 nM | CC(C)(CS(=O)(=O)c1ccc(Oc2ccccc2)cc1)[C@H](OCc1cccnc1)C(=O)NO [Example 8a, (S)-N-Hydroxy-3,3-dimethyl-4-[(4-phenoxyphenyl)sulfonyl]-2-(3-pyridinylmethoxy)butanamide] |  | 
1.6 nM | 3300 nM | 0.3 nM | CC(C)(CS(=O)(=O)c1ccc(Oc2ccccc2)cc1)[C@H](N)C(=O)NO [Example 12] |  | 
